Experiment [1] has as its system Beet Armyworm (Spodoptera exigua, LAPHEG). The experiment in a line: Bioassay on Beet Armyworm (BAW), 128-well diet tray assay. The following applies: 168 h, 50 μg/cm^2 on artificial diet, second instar larvae, 25° C., five to seven days, average of eight wells, read-out: BAW % Control (or Mortality) rating. In kind it is in vivo. Here is the method: (§1) Certain molecules disclosed in this document were tested against BAW and CL using procedures described in the following examples. In the reporting of the results, the “BAW & CL Rating Table” was used (See Table Section).
Bioassays on BAW were conducted using a 128-well diet tray assay. One to five second instar BAW larvae were placed in each well (3 mL) of the diet tray that had been previously filled with 1 mL of artificial diet to which 50 μg/cm^2 of the test molecule (dissolved in 50 μL of 90:10 acetone-water mixture) had been applied (to each of eight wells) and then allowed to dry. Trays were covered with a clear self-adhesive cover, vented to allow gas exchange, and held at 25° C., 14:10 light-dark for five to seven days. Percent mortality was recorded for the larvae in each well; activity in the eight wells was then averaged. The results are indicated in the table entitled “Table ABC: Biological Results” (See Table Section).

The subject of experiment [2] is Cabbage Looper (Trichoplusia ni, TRIPNI). The experiment in a line: Bioassay on Cabbage Looper (CL), 128-well diet tray assay. In kind it is in vivo. The following applies: 168 h, 50 μg/cm^2 on artificial diet, second instar larvae, 25° C., five to seven days, average of eight wells, read-out: CL % Control (or Mortality) rating. The method, then:
as §1
Bioassays on CL were conducted using a 128-well diet tray assay. One to five second instar CL larvae were placed in each well (3 mL) of the diet tray that had been previously filled with 1 mL of artificial diet to which 50 μg/cm^2 of the test molecule (dissolved in 50 μL of 90:10 acetone-water mixture) had been applied (to each of eight wells) and then allowed to dry. Trays were covered with a clear self-adhesive cover, vented to allow gas exchange, and held at 25° C., 14:10 light-dark for five to seven days. Percent mortality was recorded for the larvae in each well; activity in the eight wells was then averaged. The results are indicated in the table entitled “Table ABC: Biological Results” (See Table Section).

Molecules are shown by their SMILES.

With `CC(C)c1ccccc1N1C(=O)CS/C1=N\C(=O)Nc1ccc(-c2ncn(CCC(F)(F)C(F)(F)C(F)(F)F)n2)cc1` [Molecule F5, (Z)-1-(4-(1-(3,3,4,4,5,5,5-heptafluoropentyl)-1H-1,2,4-triazol-3-yl)phenyl)-3-(3-(2-isopropylphenyl)-4-oxothiazolidin-2-ylidene)urea], the mortality at 50 µg/cm2 in experiment [1] and in experiment [2] was 50 to 100% in each case.
On to `CC(C)c1ccccc1N1C(=O)CS/C1=N\C(=O)Nc1ccc(-c2ncn(Cc3ccc(C(F)(F)F)cc3)n2)cc1` [Molecule F3, (Z)-1-(3-(2-Isopropylphenyl)-4-oxothiazolidin-2-ylidene)-3-(4-(1-(4-(trifluoromethyl)benzyl)-1H-1,2,4-triazol-3-yl)phenyl)urea], for which the mortality (usually the share of the test organisms that died) at 50 µg/cm2 in experiment [1] fell in the range of 0 to 50%; in experiment [2] it was 50 to 100%.
Taken in the same sequence, the figures for `Cc1ccc(C(C)C)c(N2C(=O)CS/C2=N\C(=O)Nc2ccc(-c3ncn(CCc4ccc(OC(F)(F)F)cc4)n3)cc2)c1` [Molecule F1, (Z)-1-(3-(2-isopropyl-5-methylphenyl)-4-oxothiazolidin-2-ylidene)-3-(4-(1-(4-(trifluoromethoxy)phenethyl)-1H-1,2,4-triazol-3-yl)phenyl)urea] were 50 to 100% and 50 to 100%.
In the same order, the values of `CC(C)c1ccccc1N1C(=O)CS/C1=N\C(=O)Nc1ccc(-c2ncn(CCCC(F)(F)C(F)(F)F)n2)cc1` [Molecule F2, (Z)-1-(3-(2-Isopropylphenyl)-4-oxothiazolidin-2-ylidene)-3-(4-(1-(4,4,5,5,5-pentafluoropentyl)-1H-1,2,4-triazol-3-yl)phenyl)urea] are 50 to 100% and 50 to 100%.
With `CC(C)c1ccccc1N1C(=O)CS/C1=N\C(=O)Nc1ccc(-c2ncn(CCCCC(F)(F)F)n2)cc1` [Molecule F4, (Z)-1-(3-(2-Isopropylphenyl)-4-oxothiazolidin-2-ylidene)-3-(4-(1-(5,5,5-trifluoropentyl)-1H-1,2,4-triazol-3-yl)phenyl)urea], the mortality at 50 µg/cm2 in experiment [1] and in experiment [2] was 50 to 100% throughout.

(Values after US9650372B2, “Molecules having pesticidal utility, and intermediates, compositions, and processes, related thereto” (priority 2015, dated 2017).)
